Results from patent US9018208B2, “Heterocycles as potassium channel modulators” (Icagen Inc., priority 2007, dated 2015).
Like-named read-outs stand apart in the source and are kept apart here.

System: SH-SY5Y M-currents (KCNQ2, KCNQ3 and KCNQ5)
Experiment: SH-SY5Y native cell line FLIPR assay (voltage-sensitive dye DiBAC)
Type: cell-based, mouse neuroblastoma, rat glioma hybrid cell line
Text: SH-SY5Y cells, a mouse neuroblastoma, rat glioma hybrid cell line, functionally express M-currents (Robbins et al., J. Physiol. 451: 159-85 (1992). SH-SY5Y M-currents are likely comprised, at least in part, of KCNQ2, KCNQ3 and KCNQ5, since these genes are reportedly robustly expressed in differentiated SH-SY5Y cells (Selyanko et al., J. Neurosci. 19(18): 7742-56 (1999); Schroeder et al., J. Biol. Chem. 275(31): 24089-95 (2000)) and KCNQ3 dominant-negative constructs reduce M-current density in these cells (Selyanko et al., J. Neurosci. 22(5): RC212 (2002).
SH-SY5Y were maintained in DMEM (high glucose) supplemented with 10% fetal bovine serum, 0.05 mM pyridoxine, 0.1 mM hypoxanthine, 400 nM aminopterin, […], 50 μgml^−1 gentamycin and 10 mM HEPES, in an incubator at 37° C. with a humidified atmosphere of 5% CO2. Cells were plated in 96 well plates differentiated by addition of 10 μM PGE1 and 50 μM isomethylbutylxanthine to the growth media prior to study.
Differentiated SH-SY5Y cells were loaded with voltage-sensitive dye by incubation in Earls Balanced Salt Solution (EBSS) containing […] DiBAC for 1 h. Following loading, drug solution containing […] DiBAC was added to each well. Changes in fluorescence were measured every 30 s for 25 min. The maximum change in fluorescence was measured and expressed as a percentage of the maximum response obtained in the presence of a positive control agent.

[1] = FLIPR assay, SH-SY5Y native cell line, Table 2, read-out: SH-SY5Y EC50
[2] = FLIPR assay, SH-SY5Y native cell line, Table 1, read-out: SH-SY5Y EC50
[3] = FLIPR assay, SH-SY5Y native cell line, Table 5, read-out: SH-SY5Y EC50
[4] = SH-SY5Y native cell line, FLIPR assay (Table 3), read-out: SH-SY5Y EC50

Row | EC50 [1] [µM] | Compound | also measured
1 | 0.5 to 3 | COc1ccc(CC(=O)Nc2nc3ccc(F)cn3c2-c2ccc(F)cc2)cc1 [Compound 132, N-(6-fluoro-3-(4-fluorophenyl)imidazo[1,2-a]pyridin-2-yl)-2-(4-methoxyphenyl)acetamide] | –
2 | 3 to 10 | O=C(Cc1ccc(F)cc1Cl)Nc1nc2ccc(F)cn2c1-c1ccc(F)cc1 [Compound 140, 2-(2-chloro-4-fluorophenyl)-N-(6-fluoro-3-(4-fluorophenyl)imidazo[1,2-a]pyridin-2-yl)acetamide] | –
3 | < 0.5 | O=C(Cc1ccc(F)cc1)Nc1nc2ccc(F)cn2c1-c1cc(F)cc(F)c1 [Compound 229, N-(3-(3,5-difluorophenyl)-6-fluoroimidazo[1,2-a]pyridin-2-yl)-2-(4-fluorophenyl)acetamide] | –
4 | < 0.5 | Cc1ccc2nc(NC(=O)Cc3ccccc3)c(-c3ccc(F)cc3)n2c1 [Compound 166, N-(3-(4-fluorophenyl)-6-methylimidazo[1,2-a]pyridin-2-yl)-2-phenylacetamide] | –
5 | 0.5 to 3 | O=C(CCC(F)(F)F)Nc1nc2ccc(F)cn2c1-c1ccc(OC(F)(F)F)c(F)c1 [Compound 303, 4,4,4-trifluoro-N-(6-fluoro-3-(3-fluoro-4-(trifluoromethoxy)phenyl)imidazo[1,2-a]pyridin-2-yl)butanamide] | –
6 | 0.5 to 3 | O=C(CC1CCCC1)Nc1nc2cc(C(F)(F)F)ccn2c1-c1ccc(F)cc1F [Compound 125, 2-cyclopentyl-N-(3-(2,4-difluorophenyl)-7-(trifluoromethyl)imidazo[1,2-a]pyridin-2-yl)acetamide] | –
7 | < 0.5 | O=C(Cc1ccccc1)Nc1nc2ccc(F)cn2c1-c1cc(F)cc(F)c1 [Compound 228, N-(3-(3,5-difluorophenyl)-6-fluoroimidazo[1,2-a]pyridin-2-yl)-2-phenylacetamide] | –
8 | – | O=C(Nc1nc2ccc(C(F)(F)F)cn2c1C1CCCC1)C1CCCC1 [Compound 55, N-(3-cyclopentyl-6-(trifluoromethyl)imidazo[1,2-a]pyridin-2-yl)cyclopentanecarboxamide] | EC50 [2]: < 0.5 µM
9 | 0.5 to 3 | O=C(CCC1CC1)Nc1nc2ccc(F)cn2c1-c1cccc(C(F)(F)F)c1 [Compound 280, 3-cyclopropyl-N-(6-fluoro-3-(3-(trifluoromethyl)phenyl)imidazo[1,2-a]pyridin-2-yl)propanamide] | –
10 | 3 to 10 | CC(CC(=O)Nc1nc2ncccn2c1-c1cccc(Cl)c1)C(F)(F)F (stereo not drawn) [Compound 331, N-(3-(3-chlorophenyl)imidazo[1,2-a]pyrimidin-2-yl)-4,4,4-trifluoro-3-methylbutanamide] | –
11 | < 0.5 | CC1(CC(=O)Nc2nc3ccc(F)cn3c2-c2ccc(F)cc2)CCCC1 [Compound 179, N-(6-fluoro-3-(4-fluorophenyl)imidazo[1,2-a]pyridin-2-yl)-2-(1-methylcyclopentyl)acetamide] | –
12 | – | C=Cc1c(NC(=O)Cc2ccc(F)cc2)nc2cc(C(F)(F)F)ccn12 [Compound 426, 2-(4-fluorophenyl)-N-(7-(trifluoromethyl)-3-vinylimidazo[1,2-a]pyridin-2-yl)acetamide] | EC50 [3]: 0.5 to 3 µM
13 | < 0.5 | O=C(Cc1ccccc1)Nc1nc2ccc(F)cn2c1-c1cccc(C(F)(F)F)c1 [Compound 165, N-(6-fluoro-3-(3-(trifluoromethyl)phenyl)imidazo[1,2-a]pyridin-2-yl)-2-phenylacetamide] | –
14 | 0.5 to 3 | CC(C)(C)CC(=O)Nc1nc2cc(C(F)(F)F)ccn2c1-c1ccc(F)cc1 [Compound 113, N-(3-(4-fluorophenyl)-7-(trifluoromethyl)imidazo[1,2-a]pyridin-2-yl)-3,3-dimethylbutanamide] | –
15 | < 0.5 | O=C(Cc1ccccc1)Nc1nc2ccc(F)cn2c1-c1ccc(C(F)(F)F)cc1 [Compound 127, N-(6-fluoro-3-(4-(trifluoromethyl)phenyl)imidazo[1,2-a]pyridin-2-yl)-2-phenylacetamide] | –
16 | < 0.5 | O=C(Cc1ccc(F)cc1)Nc1nc2ccccn2c1-c1ccc(C(F)(F)F)cc1 [Compound 204, 2-(4-fluorophenyl)-N-(3-(4-(trifluoromethyl)phenyl)imidazo[1,2-a]pyridin-2-yl)acetamide] | –
17 | – | O=C(Cc1ccc(F)cc1)Nc1nc2ccc(C(F)(F)F)cn2c1-c1cc(C(F)(F)F)ccn1 [Compound 400, 2-(4-fluorophenyl)-N-(6-(trifluoromethyl)-3-(4-(trifluoromethyl)pyridin-2-yl)imidazo[1,2-a]pyridin-2-yl)acetamide] | EC50 [4]: < 0.5 µM
18 | 3 to 10 | CO[C@H](C(=O)Nc1nc2ccc(F)cn2c1-c1ccc(OC(F)(F)F)cc1)c1ccccc1 [Compound 254, (S)—N-(6-fluoro-3-(4-(trifluoromethoxy)phenyl)imidazo[1,2-a]pyridin-2-yl)-2-methoxy-2-phenyl acetamide] | –

Row | EC50 [1] [µM] | Compound | also measured
19 | 3 to 10 | CC(C)(C)CC(=O)Nc1nc2ncccn2c1-c1cccc(OC(F)(F)F)c1 [Compound 323, 3,3-dimethyl-N-(3-(3-(trifluoromethoxy)phenyl)imidazo[1,2-a]pyrimidin-2-yl)butanamide] | –
20 | – | Cc1c(NC(=O)C(F)(F)F)nc2ccc(F)cn12 [Compound 421, 2,2,2-trifluoro-N-(6-fluoro-3-methylimidazo[1,2-a]pyridin-2-yl)acetamide] | EC50 [3]: 3 to 10 µM
21 | – | CC(C)(C)CC(=O)Nc1nc2ccc(C(F)(F)F)cn2c1-c1nccs1 [Compound 82, 3,3-dimethyl-N-(3-(thiazol-2-yl)-6-(trifluoromethyl)imidazo[1,2-a]pyridin-2-yl)butanamide] | EC50 [2]: 3 to 10 µM
22 | 0.5 to 3 | O=C(Cc1ccccc1)Nc1nc2cc(C(F)(F)F)ccn2c1-c1ccc(F)cc1 [Compound 112, N-(3-(4-fluorophenyl)-7-(trifluoromethyl)imidazo[1,2-a]pyridin-2-yl)-2-phenylacetamide] | –
23 | – | CC(C)(C)CC(=O)Nc1nc2ccccn2c1-c1nccs1 [Compound 406, 3,3-dimethyl-N-(3-(thiazol-2-yl)imidazo[1,2-a]pyridin-2-yl)butanamide] | EC50 [4]: 0.5 to 3 µM
24 | 3 to 10 | O=C(Cc1ccc(F)cc1)Nc1nc2ncccn2c1-c1cccc(Cl)c1 [Compound 330, N-(3-(3-chlorophenyl)imidazo[1,2-a]pyrimidin-2-yl)-2-(4-fluorophenyl)acetamide] | –
25 | < 0.5 | O=C(CC1CC2CCC1C2)Nc1nc2ccc(F)cn2c1-c1ccc(F)cc1 (stereo not drawn) [Compound 138, 2-(bicyclo[2.2.1]heptan-2-yl)-N-(6-fluoro-3-(4-fluorophenyl)imidazo[1,2-a]pyridin-2-yl)acetamide] | –
26 | – | CC(C)(C)Cc1c(NC(=O)Cc2ccc(Oc3ccccc3)cc2)nc2ccc(C(F)(F)F)cn12 [Compound 22, N-(3-neopentyl-6-(trifluoromethyl)imidazo[1,2-a]pyridin-2-yl)-2-(4-phenoxyphenyl)acetamide] | EC50 [2]: < 0.5 µM
27 | – | CC(C)(C)CC(=O)Nc1nc2ccc(F)cn2c1C1CC1 [Compound 14, N-(3-cyclopropyl-6-fluoroimidazo[1,2-a]pyridin-2-yl)-3,3-dimethylbutanamide] | EC50 [2]: 0.5 to 3 µM; EC50 (read-out: SH-SY5Y_EC50): 2.55 µM
28 | 0.5 to 3 | O=C(Cc1ccc(F)cc1)Nc1nc2ccccn2c1-c1cccc(C(F)(F)F)c1 [Compound 338, 2-(4-fluorophenyl)-N-(3-(3-(trifluoromethyl)phenyl)imidazo[1,2-a]pyridin-2-yl)acetamide] | –
29 | < 0.5 | CC(C)(C)CC(=O)Nc1nc2c(F)cc(F)cn2c1-c1ccc(OC(F)(F)F)cc1 [Compound 262, N-(6,8-difluoro-3-(4-(trifluoromethoxy)phenyl)imidazo[1,2-a]pyridin-2-yl)-3,3-dimethylbutanamide] | –
30 | – | CC(C)(C)CC(=O)Nc1nc2ccc(F)cn2c1-c1ccc(C#N)cn1 [Compound 354, N-(3-(5-cyanopyridin-2-yl)-6-fluoroimidazo[1,2-a]pyridin-2-yl)-3,3-dimethylbutanamide] | EC50 [4]: 3 to 10 µM
31 | < 0.5 | Cc1ccn2c(-c3ccc(F)cc3)c(NC(=O)Cc3ccccc3)nc2c1 [Compound 168, N-(3-(4-fluorophenyl)-7-methylimidazo[1,2-a]pyridin-2-yl)-2-phenylacetamide] | –
32 | < 0.5 | N-(6-fluoro-3-(3-(trifluoromethoxy)phenyl)imidazo yl)cycloheptanecarboxamide [Compound 293] | –
33 | – | O=C(Cc1ccc(F)cc1)Nc1nc2ccc(C(F)(F)F)cn2c1CC1CCCCC1 [Compound 40, N-(3-(cyclohexylmethyl)-6-(trifluoromethyl)imidazo[1,2-a]pyridin-2-yl)-2-(4-fluorophenyl)acetamide] | EC50 [2]: < 0.5 µM
34 | 3 to 10 | O=C(Cc1c(F)cccc1Cl)Nc1nc2ccc(F)cn2c1-c1ccc(F)cc1 [Compound 141, 2-(2-chloro-6-fluorophenyl)-N-(6-fluoro-3-(4-fluorophenyl)imidazo[1,2-a]pyridin-2-yl)acetamide] | –
35 | 0.5 to 3 | O=C(Cc1ccccc1)Nc1nc2ccc(F)cn2c1-c1ccc(F)cc1 [Compound 106, N-(6-fluoro-3-(4-fluorophenyl)imidazo[1,2-a]pyridin-2-yl)-2-phenylacetamide] | –
